Test results as given in patent US20180245061A1, “Modified Heterocyclase” (THE UNIVERSITY COURT OF THE UNIVERSITY OF ABERDEEN, priority 2014, published 2018).

Columns and labels:
[1] = target: Lyngbya sp. LynD heterocyclase (SEQ ID NO: 1) variant K409A; assay: ITC nucleotide binding (ATP/AMP) to LynD K409A; parameters: species or system Lyngbya sp. PCC 8106; conditions: 20° C., pH 7.4, 5 mM MgCl2
Procedure: (§1) Codon optimized full-length LynD (Lyngbya sp. PCC 8106) with an N-terminal TEV protease-cleavable His6-tag was purchased from DNA2.0 in the pJexpress411 plasmid. The protein was expressed in Escherichia coli BL21 (DE3) grown on auto-induction medium {Studier, 2005, Protein expression and purification, 41, 207-234} for 48 h at 20° C. Cells were harvested by centrifugation at 4,000×g, 4° C. for 15 min and re-suspended in lysis buffer (500 mM NaCl, 20 mM Tris pH 8.0, 20 mM imidazole and 3 mM β-mercaptoethanol (BME)) with the addition of complete EDTA-free protease inhibitor tablets (Roche) and 0.4 mg DNase g^−1 wet cells (Sigma). Cells were lysed by passage through a cell disruptor at 30 kPSI (Constant Systems Ltd) and the lysate was cleared by centrifugation at 40,000×g, 4° C. for 20 min. The cleared lysate was applied to a Nickel Sepharose 6 Fast Flow (GE Healthcare) column pre-washed with lysis buffer and protein eluted with 250 mM imidazole. The protein was then passed over a desalting column (Desalt 16/10, GE Healthcare) in 100 mM NaCl, 20 mM Tris pH 8.0, 20 mM imidazole, 3 mM BME. Tobacco etch virus (TEV) protease was added to the protein at a mass-to-mass ratio of 1:10 and the protein digested for 2 h at 20° C. to remove the Hiss-tag. However, removal of the Hiss-tag was not essential for activity and so less vigorous methods for purification may also be used. […]

[2] = target: Lyngbya sp. LynD heterocyclase (SEQ ID NO: 1) variant K409E; assay: ITC nucleotide binding (ATP/AMP) to LynD K409E; parameters: species or system Lyngbya sp. PCC 8106; conditions: 20° C., pH 7.4, 5 mM MgCl2
Procedure: as §1

[3] = target: Lyngbya sp. LynD heterocyclase, wild type, SEQ ID NO: 1; assay: ITC nucleotide binding (ATP/AMP) to LynD; parameters: species or system Lyngbya sp. PCC 8106; conditions: 20° C., pH 7.4, 5 mM MgCl2, one-site model, stoichiometry set to 1, read-out: Nucleotide KD (ATP)
Procedure: as §1

[4] = target: Lyngbya sp. LynD heterocyclase (SEQ ID NO: 1) variant R427E; assay: ITC nucleotide binding (ATP/AMP) to LynD R427E; parameters: species or system Lyngbya sp. PCC 8106; conditions: 20° C., pH 7.4, 5 mM MgCl2
Procedure: as §1

[5] = target: Lyngbya sp. LynD heterocyclase (SEQ ID NO: 1) variant R636E; assay: ITC nucleotide binding (ATP/AMP) to LynD R636E; parameters: species or system Lyngbya sp. PCC 8106; conditions: 20° C., pH 7.4, 5 mM MgCl2
Procedure: as §1

[6] = target: Lyngbya sp. LynD heterocyclase (SEQ ID NO: 1) variant E423R; assay: ITC nucleotide binding (ATP/AMP) to LynD E423R; parameters: species or system Lyngbya sp. PCC 8106; conditions: 20° C., pH 7.4, 5 mM MgCl2
Procedure: as §1

ITACITACAYDGE = assay: Heterocyclization of leaderless substrate peptide ITACITACAYDGE by fused-MicD/PatD enzymes (LC-ESI-MS, MALDI-TOF-MS, HPLC-ESI-MS); assay type: biochemical; conditions: 20-30 μM enzyme, 100-110 μM peptide, 5 mM ATP, 5 mM MgCl2, 27° C., 16 h
Procedure: The Reaction was performed in 100 mM Tris pH 8.0 supplemented with 150 mM NaCl, 5 mM ATP and 5 mM MgCl2 and contained 20 μM enzyme and 100 μM peptide. The mixture was incubated at 27° C. for 16 h. The unprocessed substrate has a molecular weight of 1329.5 Da.
Reaction was performed in 50 mM Bicine pH 9.0 supplemented with 150 mM NaCl, 5 mM ATP and 5 mM MgCl2 and contained 30 μM enzyme and 110 μM peptide. The mixture was incubated at 27° C. for 16 h. The unprocessed substrate has a molecular weight of 1219.5 Da.
Each reaction contained 100 mM Tris pH 8.0, 150 mM NaCl, 5 mM ATP and 5 mM MgCl2, 20 μM of the respective enzyme and 100 μM substrate peptide, and was incubated at 27° C. for 16 h. The unprocessed substrate has a molecular weight of 1329.5 Da.
Reaction was performed in 50 mM Bicine pH 9.0 supplemented with 150 mM NaCl, 5 mM ATP and 5 mM MgCl2 and contained 30 μM enzyme and 110 μM peptide. The mixture was incubated at 27° C. for 16 h. The unprocessed substrate has a molecular weight of 1329.5 Da.
Only 1 peak (9.254 min) indicates the reaction product is only one species. […] Multiple peaks of low intensity compared with m/z=1258.5 can be attributed to noise. Product was purified from the enzyme and ATP using size exclusion chromatography (Superdex 30, GE Healthcare) and exchanged into 50 mM Bicine pH 9.0, 500 mM NaCl and 5% DMSO.

| heterocyclized species produced from ITACITACAYDGE (ITACITACAYDGE) | heterocyclized species produced from ITACITACAYDGE (ITACITACAYDGE; listed as MicD-Q21-9G) | Molecule | Nucleotide KD (ATP) [1] | Nucleotide KD (ATP) [2] | Kd [3] [µM] | Nucleotide KD (ATP) [4] | Nucleotide KD (ATP) [5] | Nucleotide KD (ATP) [6] |
| --- | --- | --- | --- | --- | --- | --- | --- | --- |
|  |  | Nc1ncnc2c1ncn2[C@@H]1O[C@H](COP(=O)(O)OP(=O)(O)OP(=O)(O)O)[C@@H](O)[C@H]1O [ATP] | no binding | no binding | 50.2 | no binding | no binding | no binding |
| 4 | only a single four heterocycle species | MicD-Q21-9GA: fused-MicD: leader from Q21, 9 GA repeats linker, KL, MicD (SEQ ID NO: 41) (protein, Modified heterocyclase MicroD_Q21_9GA) MSHHHHHHDYDENLYFQGSQLSSQLAELSEEALGDAGAGAGAGAGAGAGAGAGAKLMQSTPLLQIQPHFHVEVIEPKQVYLLGEQANYALTGQLYCQILPLLDGQHSREQIVEKLDGEVPSEYIDYVLDRLAEKGYLTEAAPELSSEVAAFWSELGIAPPVAAEALRQSVTLTPVGNISEVTVAALTTALRDIGISVQTPTEAGSPTALNVVLTDDYLQPELAKINKQALESQQTWLLVKPVGSVLWLGPVFVPGKTGCWDCLAHRLRGNREVEASVLQQKQAQQQRNGQSGSVIGCLPTARATLPSTLQTGLQFAATEIAKWIVKHHVKATAPGTVFFPTLDGKIITFNHTVIDLKSHVLVRRSQCPSCGDRQILHRQGFEPVKLVSRRKHFTHDGGHRAFTPEQTVQKYQHLVSPITGVVTELVRLTDPANPLVHTYKAGHAFGSATTLRGLRNTLKYKSSGKGKTDIQSRASGLCEAIERYSGIFQGDEPRKRATLAELGDLALHPESLLYFSNTQYANREELNAQGSAAAYRWIPNRFDVSQAIDWTPVWSLTEQKHKYVPTAFCYYGYPLPEEQRFCKADSNGNAAGNTLEEAILQGFLELVERDSIAMWWYNRIRRPAVDLSTFDEPYFVDLQQFYQQQNRELWVLDVTADLGIPAFAGFSRRTVGTSERISIGFGAHLDPTIAILRALTEVSQVGLELDKIPDDKLDGESKDWMLNVTVENHPWLAPDPSVPMKTASDYPKRWSDDIHTDVMNCVKTAQTAGLEVMVLDQTRPDIGLNVVKVIIPGMRTFWTRFGQGRLYDIPVKLGWLDAPLAEEELNQTNIPF |  |  |  |  |  |  |
| no effect on heterocyclization |  | MicD-R16-GLEAS-5GA: fused-MicD: leader from R16 extended by GLEAS prior to the GA linker (SEQ ID NO: 43) (protein, Modified heterocyclase MicroD_R16_GLEAS_5GA) MSHHHHHHDYDENLYFQGSRLTAGQLSSQLAELSEEALGDAGLEASGAGAGAGAGAKLMQSTPLLQIQPHFHVEVIEPKQVYLLGEQANYALTGQLYCQILPLLDGQHSREQIVEKLDGEVPSEYIDYVLDRLAEKGYLTEAAPELSSEVAAFWSELGIAPPVAAEALRQSVTLTPVGNISEVTVAALTTALRDIGISVQTPTEAGSPTALNVVLTDDYLQPELAKINKQALESQQTWLLVKPVGSVLWLGPVFVPGKTGCWDCLAHRLRGNREVEASVLQQKQAQQQRNGQSGSVIGCLPTARATLPSTLQTGLQFAATEIAKWIVKHHVKATAPGTVFFPTLDGKIITFNHTVIDLKSHVLVRRSQCPSCGDRQILHRQGFEPVKLVSRRKHFTHDGGHRAFTPEQTVQKYQHLVSPITGVVTELVRLTDPANPLVHTYKAGHAFGSATTLRGLRNTLKYKSSGKGKTDIQSRASGLCEAIERYSGIFQGDEPRKRATLAELGDLALHPESLLYFSNTQYANREELNAQGSAAAYRWIPNRFDVSQAIDWTPVWSLTEQKHKYVPTAFCYYGYPLPEEQRFCKADSNGNAAGNTLEEAILQGFLELVERDSIAMWWYNRIRRPAVDLSTFDEPYFVDLQQFYQQQNRELWVLDVTADLGIPAFAGFSRRTVGTSERISIGFGAHLDPTIAILRALTEVSQVGLELDKIPDDKLDGESKDWMLNVTVENHPWLAPDPSVPMKTASDYPKRWSDDIHTDVMNCVKTAQTAGLEVMVLDQTRPDIGLNVVKVIIPGMRTFWTRFGQGRLYDIPVKLGWLDAPLAEEELNQTNIPF |  |  |  |  |  |  |
